Literature values in paper PMC2222665, “The dimerization domain of HIV-1 viral infectivity factor Vif is required to block virion incorporation of APOBEC3G” (Retrovirology, 2007).

System: HIV-1
Design: method as in PMID 1708976
Details: ref [45],[46]

In the case of `Cc1cn([C@H]2C[C@H](N=[N+]=[N-])[C@@H](CO)O2)c(=O)[nH]c1=O` [AZT], the “IC95 of HIV-1 infectivity” value is listed as 5 µM.
